Tests used:
[1] = tested on: Total splenic B cells from C3H, AKR, C3H.lpr and MRL.gld mice; assay: DNA content of total splenic B cells (saponin/propidium iodide flow cytometry); type: cell-based; settings: B cells from lpr animals compared with normal animals
Protocol: Total splenic B cells were isolated from C3H, AKR, C3H.lpr, and MRL.gld mice. The cells were cultured overnight, harvested, permeabilized in saponin, stained with propidium iodide (PI) which intercalates into DNA, and analyzed by flow cytometry. Because the majority of cells in these preparations are either resting or “growth arrested,” the predominant peak in the untreated samples is the G0/G1 peak (2N DNA).

[2] = tested on: Splenic B cells from AKR mice (resting, in vitro primed, in vivo activated); assay: Apoptotic death of splenic B cells scored by nucleosome-sized DNA fragments (densitometry); type: cell-based; settings: 10 μM, primed and activated B cells
Protocol: Splenic B cells from AKR mice were separated on a Percoll density gradient and two fractions were collected: small, high-density, resting B cells were obtained from the 1.079<ρ<1.085 g/ml interface and large in vivo activated B cells were collected at the BSS<ρ<1.066 g/ml interface. In vitro primed B cells were obtained by treating resting B cells with 16U recombinant IL-4 and by incubating them overnight on anti-Ig-coated plates. […] Apoptotic death was scored by quantitating the formation of nucleosome-sized DNA fragments by densitometry.

L1210/DDP cells = assay: Methotrexate-induced cell death (flow cytometry, ethidium bromide, DNA fragments); type: cell-based, mouse (BALB/c-derived)
Protocol: (§1) L1210 and L1210/DDP cells were treated overnight with 5×10^−7 M methotrexate. […] The forward scatter low populations took up ethidium bromide differentially. The L1210 cells took up a moderate amount of ethidium bromide whereas the L1210/DDP cells took up large amounts. […] This latter phenotype—loss in forward scatter and membrane permeability with no “DNA laddering”—is the hall mark of oncosis.
(§2) L1210 and L1210/DDP cells were treated with a dose of methotrexate that produced moderate amounts of cell death. (Even though L1210/DDP is “methotrexate resistant”, the drug does induce cell death in the cultures; the surviving cells which grow out of the culture are responsible for the lines “drug resistant” appellation).

L1210 cells = assay: as above; type: cell-based, mouse (BALB/c-derived)
Protocol: as §1, §2

[3] = tested on: transgenic mice expressing a hen egg lysozyme (HEL)-specific T cell receptor (3A9) crossed with MHC class II transgenic mice; assay: In vivo antigen pulse of 3A9 x MHC class II transgenic crosses, spleen cell analysis; settings: 100 μg, six days after injection
Protocol: Mouse spleens were removed after sacrifice and placed into 4 ml PBS, 0.1% BSA in a petri dish. A single cell suspension was prepared using the frosted ends of two microscope slides. Cells were then transferred into a 15 ml tube. The cell suspension was underlayed with 2 ml Ficoll-paque and then centrifuged for 15 min. at 1,000×g. Lymphocytes at the interface were collected and washed 3× with ice-cold 15 ml PBS, 0.1% BSA. Cells were counted and resuspended to 1.6×10^7 viable cells per ml concentration, in RPMI 1640 25 mM HEPES, 50 μM 2-ME, 10% FBS, 1× L-glutamine, 1× sodium pyruvate, 1× nonessential amino acids.
The FACScalibur, flow cytometer was calibrated using Becton-Dickinson calibration beads prior to each four color analysis run. Cells also were analyzed on a FACScan™ with CellQuest software (Becton Dickinson, San Jose, Calif.).
Two different crosses between the mice carrying the different transgenes were generated. Transgenic mice expressing a hen egg lysozyme (HEL)-specific T cell receptor (3A9) were crossed with: (i) the transgenic mice expressing wild type MIIC class II on a null MHC class II background, and (ii) the transgenic mice expressing hybrid MHC class II-MCH class I molecules on a null MHC class II background.
Mice, 4-8 weeks old, generated from the above-identified crosses were pulsed in vivo with an injection of 100 μg total of antigen (HEL). Six days after injenction, the cells from splenes were harvested, as described above, and analyzed. […] Additionally, the “tail” of MHC class II is not necessary for the proper loading and presentation of antigen.

[4] = 3A9×wild type MHC class II on null background

CC[C@H]1CN2CCc3cc(OC)c(OC)cc3[C@@H]2C[C@@H]1C[C@H]1NCCc2cc(OC)c(OC)cc21 [emetine]
DNA fragmentation, lpr vs normal B cells [1]: equally capable of fragmenting DNA

CC(C)NCC(O)c1ccc(O)c(O)c1 (stereo not drawn) [isoproterenol]
induction of apoptosis [2]: induces apoptosis in all three populations

CN(Cc1cnc2nc(N)nc(N)c2n1)c1ccc(C(=O)N[C@@H](CCC(=O)O)C(=O)O)cc1 [methotrexate]
mode of cell death (L1210/DDP cells): die by oncosis | DNA fragments (L1210/DDP cells; 5×10^−7 M overnight): did not | mode of cell death (L1210 cells; L1210): die by apoptosis | DNA fragments (L1210 cells; L1210, 5×10^−7 M overnight): produced a ladder of nucleosome sized fragments indicative of apoptosis

hen egg lysozyme [HEL]
T cells in spleen ([3]; 3A9×hybrid MHC class II-MHC class I on null background): a CD4^+ T cell subset missing | MHC class II bearing B cells in spleen [3, 4]: no MHC class II bearing B cells | T cells in spleen [3, 4]: normal T cell numbers

From patent US20030138433A1, “Autologous adoptive immunotherapy with antigen-specific primed T cells or B cells to promote antigen-specific immune responses with an appropriate cytokine bias” (priority 1999, published 2003)
